Data: US4866068A, “Novel HMG-CoA reductase inhibitors” (Merck & Co., Inc., priority 1988, dated 1989)

Tested on: HMG-CoA reductase
Test: in vitro HMG-CoA reductase inhibition, relative potency versus compactin
Assay type: biochemical
Conditions: compactin (mevastatin) assigned a value of 100; IC50 of test compound compared with that of compactin determined simultaneously
Protocol: The intrinsic HMG-CoA reductase inhibition activity of the claimed compounds is measured in the in vitro protocol published in J. Med. Chem., 28, p. 347-358 (1985).
For estimation of relative inhibitory potencies, compactin (i.e., mevastatin) was assigned a value of 100 and the IC50 value of the test compound was compared with that of compactin determined simultaneously in the published in vitro protocol.

| Compound | relative potency (intrinsic HMG-CoA reductase inhibitory activity) |
| --- | --- |
| C[C@H]1C=C2C=C[C@H](C)[C@H](CC[C@@H]3C[C@@H](O)CC(=O)O3)[C@H]2[C@@H](OC(=O)C(C)(C)Sc2nc3ccccc3s2)C1 [Example 2] | 100 |
| C[C@H]1C=C2C=C[C@H](C)[C@H](CC[C@@H]3C[C@@H](O)CC(=O)O3)[C@H]2[C@@H](OC(=O)C(C)(C)Sc2ccncc2)C1 [Example 1, 6R-[2-[8(S)[2-methyl-2-(4-pyridinylthio)propionyloxy]-2(S), 6(R)-dimethyl-1,2,6,7,8,8a(R)-hexahydronaphthyl-1(S)]ethyl]-4(R)-hydroxy-3,4,5,6-tetrahydro-2H-pyran-2-one] | 112 |
